Test results reported in patent US8835462B2, “Macrocyclic picolinamides as fungicides” (Dow AgroSciences LLC, priority 2012, dated 2014).
Where two headings read alike, the source gives them in different places.

Legend:
Type in all cases: in vivo
[1] = test system: Erysiphe cichoracearum; experiment: Powdery mildew of cucumber (ERYSCI) fungicidal activity; settings: Golovinomyces cichoracearum, 24 h, 1 Day Protectant, read-out: Disease Control ERYSCI 1DP
Description: Technical grades of materials were dissolved in acetone, which were then mixed with nine volumes of water containing 110 ppm Triton X-100. The fungicide solutions were applied onto wheat seedlings using an automated booth sprayer to run-off. All sprayed plants were allowed to air dry prior to further handling. Wheat plants (variety Yuma) were grown from seed in a greenhouse in 50% mineral soil/50% soil-less Metro mix until the first leaf was fully emerged, with 7-10 seedlings per pot. These plants were inoculated with an aqueous spore suspension of Septoria tritici either prior to or after fungicide treatments. After inoculation the plants were kept in 100% relative humidity (one day in a dark dew chamber followed by two to three days in a lighted dew chamber at 20° C.) to permit spores to germinate and infect the leaf. The plants were then transferred to a greenhouse set at 20° C. for disease to develop. When disease symptoms were fully expressed on the 1st leaves of untreated plants, infection levels were assessed on a scale of 0 to 100 percent disease severity. Percent disease control was calculated using the ratio of disease severity on treated plants relative to untreated plants. Evaluation of Fungicidal Activity: Powdery Mildew of Cucumber (Erysiphe cichoracearum; Bayer Code […]) Cucumber seedlings (variety Bush Pickle) were grown in soil-less Metro mix, with one plant per pot, and used in the test when 12 to 14 days old. Plants were inoculated with a spore suspension 24 hr following fungicide treatments. After inoculation the plants remained in the greenhouse set at 20° C. until disease was fully expressed. Fungicide formulation, application and disease assessment on the sprayed leaves followed the procedures as described in the Example A.

[2] = test system: Puccinia triticina; experiment: Fungicide mobility (dropline mobility test), wheat brown rust (PUCCRT); settings: 1 ug/leaf, disease-free zone as percent of distance from marked line to leaf tip; for Dropline Mobility Test PUCCRT 1 DPM: 1 Day Protectant Mobility; for Dropline Mobility Test PUCCRT 3 DCM: 3 Day Curative Mobility
Outline: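 Yuma wheat primary leaves, held horizontal, got a 2 μl drop of EC-formulated compound in water with 110 ppm Triton X-100 on a line 5 cm from the tip; 6 replicates. Inoculation 1 day after or 3 days before application. Acropetal disease-free zone measured as percent of line-to-tip distance once control rust fully expressed.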

[3] = test system: Puccinia triticina; experiment: Wheat brown rust (PUCCRT) fungicidal activity on wheat seedlings
Outline: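 Compounds in acetone diluted with nine volumes water containing 110 ppm Triton X-100, sprayed to run-off on first-leaf Yuma wheat seedlings inoculated with P. triticina spores before or after treatment. Dark dew room 22° C, 100% RH overnight, then greenhouse 24° C; percent disease control from severity (0-100%) relative to untreated plants.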

[4] = test system: Blumeria graminis f. sp. tritici; experiment: Wheat powdery mildew (ERYSGT) fungicidal activity; settings: 24 h, 1 Day Protectant, read-out: Disease Control ERYSGT 1DP
Description: Technical grades of materials were dissolved in acetone, which were then mixed with nine volumes of water containing 110 ppm Triton X-100. The fungicide solutions were applied onto wheat seedlings using an automated booth sprayer to run-off. All sprayed plants were allowed to air dry prior to further handling. Wheat plants (variety Yuma) were grown from seed in a greenhouse in 50% mineral soil/50% soil-less Metro mix until the first leaf was fully emerged, with 7-10 seedlings per pot. These plants were inoculated with an aqueous spore suspension of Septoria tritici either prior to or after fungicide treatments. After inoculation the plants were kept in 100% relative humidity (one day in a dark dew chamber followed by two to three days in a lighted dew chamber at 20° C.) to permit spores to germinate and infect the leaf. The plants were then transferred to a greenhouse set at 20° C. for disease to develop. When disease symptoms were fully expressed on the 1st leaves of untreated plants, infection levels were assessed on a scale of 0 to 100 percent disease severity. Percent disease control was calculated using the ratio of disease severity on treated plants relative to untreated plants. Evaluation of Fungicidal Activity: Wheat Powdery Mildew (Blumeria Graminis f. sp. Tritici; Synonym: Erysiphe graminis f. sp. Tritici; Bayer Code […]) Wheat plants (variety Yuma) were grown from seed in a greenhouse in 50% mineral soil/50% soil-less Metro mix until the first leaf was fully emerged, with 7-10 seedlings per pot. These plants were inoculated by dusting with infected stock plants 24 hr after fungicide treatments. After inoculation the plants were kept in a greenhouse set at 20° C. for disease to develop. Fungicide formulation, application and disease assessment on the sprayed leaves followed the procedures as described in the Example A.

[5] = 24 h, 1 Day Protectant, read-out: Disease Control PUCCRT 1 DP
[6] = 72 h, 3 Day Curative, read-out: Disease Control PUCCRT 3 DC

Q: `CCCO[C@@H]1[C@@H](Cc2ccccc2)COC[C@H](NC(=O)c2nccc(OC)c2OCOC(C)=O)C(=O)O[C@H]1C` [Compound 22] was tested. Which pest or weed control at 100 ppm [1] did it give?
A: The pest or weed control at 100 ppm was 80 to 100%.

Q: And the “Dropline Mobility Test PUCCRT 1 DPM” value [2]?
A: Its value is “B (More than 0-Less than 80)”.

Q: And the “Dropline Mobility Test PUCCRT 3 DCM” value [2]?
A: Its value is “B (More than 0-Less than 80)”.

Q: What about the pest or weed control at 100 ppm [3, 5] of the same compound?
A: The pest or weed control at 100 ppm was 80 to 100%.

Q: What about the pest or weed control at 100 ppm [3, 6] of the same compound?
A: The pest or weed control at 100 ppm was 80 to 100%.

Q: What about the pest or weed control at 100 ppm [4] of the same compound?
A: The pest or weed control at 100 ppm was 80 to 100%.

Q: What does the source list for `COc1ccnc(C(=O)N[C@H]2COC[C@H](Cc3ccccc3)[C@@H](OCCCC(F)(F)F)[C@H](C)OC2=O)c1OCOC(C)=O` [Compound 23]?
A: pest or weed control at 100 ppm [1]: 80 to 100%; Dropline Mobility Test PUCCRT 1 DPM [2]: B (More than 0-Less than 80); Dropline Mobility Test PUCCRT 3 DCM [2]: B (More than 0-Less than 80); pest or weed control at 100 ppm [3, 5]: 80 to 100%; pest or weed control at 100 ppm [3, 6]: 80 to 100%; pest or weed control at 100 ppm [4]: 80 to 100%

Q: How did the pest or weed control at 100 ppm [1] turn out when `CCCCCO[C@@H]1[C@@H](Cc2ccccc2)COC[C@H](NC(=O)c2nccc(OC)c2OCOC(C)=O)C(=O)O[C@H]1C` [Compound 26] was run?
A: Its pest or weed control at 100 ppm is 80 to 100%.

Q: What about the “Dropline Mobility Test PUCCRT 1 DPM” value [2] of the same compound?
A: The value was “B (More than 0-Less than 80)”.

Q: What about the “Dropline Mobility Test PUCCRT 3 DCM” value [2] of the same compound?
A: The value was “B (More than 0-Less than 80)”.

Q: What about the pest or weed control at 100 ppm [3, 5] of the same compound?
A: Its pest or weed control at 100 ppm is 80 to 100%.

Q: And the pest or weed control at 100 ppm [3, 6]?
A: The pest or weed control at 100 ppm was 80 to 100%.

Q: What about the pest or weed control at 100 ppm [4] of the same compound?
A: The pest or weed control at 100 ppm was 0 to 80%.

Q: Which results are given for `COc1ccnc(C(=O)N[C@H]2COC[C@H](Cc3ccccc3)[C@@H](OCCCc3ccccc3)[C@H](C)OC2=O)c1OCOC(C)=O` [Compound 34]?
A: pest or weed control at 100 ppm [1]: 0 to 80%; Dropline Mobility Test PUCCRT 1 DPM [2]: B (More than 0-Less than 80); pest or weed control at 100 ppm [3, 5]: 80 to 100%; pest or weed control at 100 ppm [3, 6]: 80 to 100%; pest or weed control at 100 ppm [4]: 0 to 80%

Q: `COC(=O)/C=C/O[C@@H]1[C@@H](Cc2ccccc2)COC[C@H](NC(=O)c2nccc(OC)c2OCOC(C)=O)C(=O)O[C@H]1C` [Compound 36] was tested. Which pest or weed control at 100 ppm [1] did it give?
A: Its pest or weed control at 100 ppm is 0 to 80%.

Q: And the “Dropline Mobility Test PUCCRT 1 DPM” value [2]?
A: The value was “B (More than 0-Less than 80)”.

Q: What about the “Dropline Mobility Test PUCCRT 3 DCM” value [2] of the same compound?
A: The value was “B (More than 0-Less than 80)”.

Q: And the pest or weed control at 100 ppm [3, 5]?
A: The pest or weed control at 100 ppm was 80 to 100%.

Q: What about the pest or weed control at 100 ppm [3, 6] of the same compound?
A: The pest or weed control at 100 ppm was 80 to 100%.

Q: And the pest or weed control at 100 ppm [4]?
A: The pest or weed control at 100 ppm was 0 to 80%.

Q: What does the source list for `COc1ccnc(C(=O)N[C@H]2COC[C@H](Cc3ccccc3)[C@@H](OC(=O)C3CC3)[C@H](C)OC2=O)c1OCOC(C)=O` [Compound 38]?
A: pest or weed control at 100 ppm [1]: 0 to 80%; Dropline Mobility Test PUCCRT 1 DPM [2]: B (More than 0-Less than 80); Dropline Mobility Test PUCCRT 3 DCM [2]: B (More than 0-Less than 80); pest or weed control at 100 ppm [3, 5]: 80 to 100%; pest or weed control at 100 ppm [3, 6]: 80 to 100%; pest or weed control at 100 ppm [4]: 0 to 80%

Q: For `COc1ccnc(C(=O)N[C@H]2COC[C@H](Cc3ccccc3)[C@@H](OC)[C@H](C)OC2=O)c1OCOC(C)=O` [Compound 39], which pest or weed control at 100 ppm [1] is on record?
A: The pest or weed control at 100 ppm was 0 to 80%.

Q: And the “Dropline Mobility Test PUCCRT 1 DPM” value [2]?
A: The value was “A (80-100)”.

Q: What about the “Dropline Mobility Test PUCCRT 3 DCM” value [2] of the same compound?
A: Its value is “A (80-100)”.

Q: And the pest or weed control at 100 ppm [3, 5]?
A: The pest or weed control at 100 ppm was 80 to 100%.

Q: What about the pest or weed control at 100 ppm [3, 6] of the same compound?
A: The pest or weed control at 100 ppm was 80 to 100%.

Q: What about the pest or weed control at 100 ppm [4] of the same compound?
A: The pest or weed control at 100 ppm was 0 to 80%.
